The record followed here is ChEMBL document CHEMBL4390652, “Design, biological evaluation and X-ray crystallography of nanomolar multifunctional ligands targeting simultaneously acetylcholinesterase and glycogen synthase kinase-3” (Eur J Med Chem, 2019).

Broadly, the IC50 is the concentration that inhibits the measured activity by half.

Assay [1] deals with BDNF/NT-3 growth factors receptor (Homo sapiens) (UniProt Q16620). The experiment in a line: Binding affinity to wild-type human partial length TRKB (Q547 to G838 residues) expressed in mammalian expression system assessed as residual binding level at 10 uM by Kinomescan method relative to control.
The target in assay [2] is Tyrosine-protein kinase FRK (Homo sapiens) (UniProt P42685). Nature of the assay: Binding affinity to wild-type human partial length FRK (A215 to F503 residues) expressed in bacterial expression system assessed as residual binding level at 10 uM by Kinomescan method relative to control.
The target in assay [3] is Insulin-like growth factor 1 receptor (Homo sapiens) (UniProt P08069). Nature of the assay: Binding affinity to wild-type human partial length IGF1R (L972 to D1294 residues) expressed in bacterial expression system assessed as residual binding level at 10 uM by Kinomescan method relative to control.
In assay [4] the target is Mitogen-activated protein kinase kinase kinase 1 (Homo sapiens) (UniProt Q13233). Nature of the assay: Binding affinity to wild-type human partial length MAP3K1 (L1202 to W1512 residues) expressed in mammalian expression system assessed as residual binding level at 10 uM by Kinomescan method relative to control.
Assay [5] deals with Serine/threonine-protein kinase PAK 6 (Homo sapiens) (UniProt Q9NQU5). The experiment in a line: Binding affinity to wild-type human partial length PAK6 (N298 to C681 residues) expressed in bacterial expression system assessed as residual binding level at 10 uM by Kinomescan method relative to control.
In assay [6] the target is Calcium/calmodulin-dependent protein kinase type 1D (Homo sapiens) (UniProt Q8IU85). Nature of the assay: Binding affinity to wild-type human partial length CAMK1D (M1 to K299 residues) expressed in bacterial expression system assessed as residual binding level at 10 uM by Kinomescan method relative to control.
Assay [7] addresses Cyclin-dependent kinase 16 (Homo sapiens) (UniProt Q00536). Nature of the assay: Binding affinity to wild-type human partial length PCTK1 (G160 to A474 residues) expressed in mammalian expression system assessed as residual binding level at 10 uM by Kinomescan method relative to control.
The subject of assay [8] is Epidermal growth factor receptor (Homo sapiens), P00533 [UNDEFINED MUTATION]. The experiment in a line: Binding affinity to human partial length EGFR E746-A750del mutant expressed in bacterial expression system assessed as residual binding level at 10 uM by Kinomescan method relative to control.
The target in assay [9] is Activin receptor type-1-like (Homo sapiens) (UniProt P37023). Nature of the assay: Binding affinity to wild-type human ACVRL1 (L164 to Q503 residues) expressed in bacterial expression system assessed as residual binding level at 10 uM by Kinomescan method relative to control.
For assay [10], the system named is Mast/stem cell growth factor receptor Kit (Homo sapiens), P10721 [D816V]. The experiment in a line: Binding affinity to human partial length KIT D816V mutant (I571 to D952 residues) expressed in bacterial expression system assessed as residual binding level at 10 uM by Kinomescan method relative to control.
For assay [11], the target named is MAP/microtubule affinity-regulating kinase 3 (Homo sapiens) (UniProt P27448). Nature of the assay: Binding affinity to wild-type human full length MARK3 (M1 to L729 residues) expressed in bacterial expression system assessed as residual binding level at 10 uM by Kinomescan method relative to control.
Assay [12] has as its system Receptor-type tyrosine-protein kinase FLT3 (Homo sapiens), P36888 [D835Y]. Nature of the assay: Binding affinity to human partial length FLT3 D835Y mutant (Q580 to Y969 residues) expressed in bacterial expression system assessed as residual binding level at 10 uM by Kinomescan method relative to control.
Assay [13] deals with Dual specificity mitogen-activated protein kinase kinase 7 (Homo sapiens) (UniProt O14733). Nature of the assay: Binding affinity to wild-type human full length MKK7 (M1 to R419 residues) expressed in mammalian expression system assessed as residual binding level at 10 uM by Kinomescan method relative to control.
In assay [14] the target is Cyclin-G-associated kinase (Homo sapiens) (UniProt O14976). Nature of the assay: Binding affinity to wild-type human partial length GAK (G13 to Y338 residues) expressed in bacterial expression system assessed as residual binding level at 10 uM by Kinomescan method relative to control.
Another assay deals with PC-3. The experiment in a line: Cytotoxicity against human PC3 cells assessed as growth inhibition incubated for 48 hrs by Hoechst 33342 staining based assay. The format is cell-based. Conditions: PC-3, 48 h.
For assay [15], the target named is Ephrin type-B receptor 1 (Homo sapiens) (UniProt P54762). The experiment in a line: Binding affinity to wild-type human partial length EPHB1 (P589 to T911 residues) expressed in bacterial expression system assessed as residual binding level at 10 uM by Kinomescan method relative to control.
In assay [16] the target is Glycogen synthase kinase-3 beta (Homo sapiens) (UniProt P49841). Nature of the assay: Binding affinity to wild-type human full length GSK3B (M1 to T433 residues) expressed in mammalian expression system assessed as residual binding level at 10 uM by Kinomescan method relative to control.
The target of assay [17] is Dual specificity protein kinase CLK1 (Homo sapiens) (UniProt P49759). The experiment in a line: Binding affinity to wild-type human full length CLK1 (M1 to I484 residues) expressed in bacterial expression system assessed as residual binding level at 10 uM by Kinomescan method relative to control.
Assay [18] addresses Interleukin-1 receptor-associated kinase 1 (Homo sapiens) (UniProt P51617). Nature of the assay: Binding affinity to wild-type human partial length IRAK1 (R194 to S712 residues) expressed in mammalian expression system assessed as residual binding level at 10 uM by Kinomescan method relative to control.

Sequence of Activin receptor type-1-like (Homo sapiens) (P37023 whole entry, the tested form may be a part): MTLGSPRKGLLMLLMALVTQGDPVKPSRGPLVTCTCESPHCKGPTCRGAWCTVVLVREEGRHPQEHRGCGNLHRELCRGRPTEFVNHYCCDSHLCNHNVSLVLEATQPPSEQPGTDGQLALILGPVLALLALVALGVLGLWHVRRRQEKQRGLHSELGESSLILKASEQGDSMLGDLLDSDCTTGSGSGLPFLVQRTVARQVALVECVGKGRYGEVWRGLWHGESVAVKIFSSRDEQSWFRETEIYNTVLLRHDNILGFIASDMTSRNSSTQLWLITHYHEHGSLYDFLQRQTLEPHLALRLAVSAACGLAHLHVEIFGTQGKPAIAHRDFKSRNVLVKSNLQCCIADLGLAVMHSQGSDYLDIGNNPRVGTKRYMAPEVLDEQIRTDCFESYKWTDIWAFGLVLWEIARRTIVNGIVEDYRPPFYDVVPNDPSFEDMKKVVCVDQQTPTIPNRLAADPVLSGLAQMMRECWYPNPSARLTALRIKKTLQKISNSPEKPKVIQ
Sequence of Glycogen synthase kinase-3 beta (Homo sapiens) (P49841 whole entry, looked up, the tested form may be a part): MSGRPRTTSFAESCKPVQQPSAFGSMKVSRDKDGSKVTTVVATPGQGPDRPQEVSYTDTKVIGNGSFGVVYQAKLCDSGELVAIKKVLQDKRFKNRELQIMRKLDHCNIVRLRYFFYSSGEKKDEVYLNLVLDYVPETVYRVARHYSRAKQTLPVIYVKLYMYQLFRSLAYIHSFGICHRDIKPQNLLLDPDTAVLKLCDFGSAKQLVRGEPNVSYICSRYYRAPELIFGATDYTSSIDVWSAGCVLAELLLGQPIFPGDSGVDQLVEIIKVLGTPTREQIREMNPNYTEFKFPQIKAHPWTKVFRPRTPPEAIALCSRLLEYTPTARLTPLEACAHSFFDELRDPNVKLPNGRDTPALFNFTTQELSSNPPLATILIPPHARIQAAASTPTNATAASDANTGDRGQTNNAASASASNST
Sequence of Tyrosine-protein kinase FRK (Homo sapiens) (P42685 whole entry, the tested form may be a part): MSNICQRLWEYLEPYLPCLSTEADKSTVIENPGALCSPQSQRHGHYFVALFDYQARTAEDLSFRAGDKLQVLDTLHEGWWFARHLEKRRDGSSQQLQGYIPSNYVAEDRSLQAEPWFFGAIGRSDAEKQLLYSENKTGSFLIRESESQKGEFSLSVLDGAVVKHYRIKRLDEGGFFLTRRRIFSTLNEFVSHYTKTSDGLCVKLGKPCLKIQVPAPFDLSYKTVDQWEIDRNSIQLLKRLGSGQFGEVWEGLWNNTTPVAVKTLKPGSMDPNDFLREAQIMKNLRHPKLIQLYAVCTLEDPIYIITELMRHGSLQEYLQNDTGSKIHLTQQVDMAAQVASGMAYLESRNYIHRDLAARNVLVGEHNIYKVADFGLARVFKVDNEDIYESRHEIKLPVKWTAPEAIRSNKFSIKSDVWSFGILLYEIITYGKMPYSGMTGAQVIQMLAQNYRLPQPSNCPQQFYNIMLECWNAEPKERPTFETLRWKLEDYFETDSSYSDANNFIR
Sequence of Epidermal growth factor receptor (Homo sapiens), P00533 [UNDEFINED MUTATION] (P00533 whole entry, looked up, stated change not applied, the tested form may be a part): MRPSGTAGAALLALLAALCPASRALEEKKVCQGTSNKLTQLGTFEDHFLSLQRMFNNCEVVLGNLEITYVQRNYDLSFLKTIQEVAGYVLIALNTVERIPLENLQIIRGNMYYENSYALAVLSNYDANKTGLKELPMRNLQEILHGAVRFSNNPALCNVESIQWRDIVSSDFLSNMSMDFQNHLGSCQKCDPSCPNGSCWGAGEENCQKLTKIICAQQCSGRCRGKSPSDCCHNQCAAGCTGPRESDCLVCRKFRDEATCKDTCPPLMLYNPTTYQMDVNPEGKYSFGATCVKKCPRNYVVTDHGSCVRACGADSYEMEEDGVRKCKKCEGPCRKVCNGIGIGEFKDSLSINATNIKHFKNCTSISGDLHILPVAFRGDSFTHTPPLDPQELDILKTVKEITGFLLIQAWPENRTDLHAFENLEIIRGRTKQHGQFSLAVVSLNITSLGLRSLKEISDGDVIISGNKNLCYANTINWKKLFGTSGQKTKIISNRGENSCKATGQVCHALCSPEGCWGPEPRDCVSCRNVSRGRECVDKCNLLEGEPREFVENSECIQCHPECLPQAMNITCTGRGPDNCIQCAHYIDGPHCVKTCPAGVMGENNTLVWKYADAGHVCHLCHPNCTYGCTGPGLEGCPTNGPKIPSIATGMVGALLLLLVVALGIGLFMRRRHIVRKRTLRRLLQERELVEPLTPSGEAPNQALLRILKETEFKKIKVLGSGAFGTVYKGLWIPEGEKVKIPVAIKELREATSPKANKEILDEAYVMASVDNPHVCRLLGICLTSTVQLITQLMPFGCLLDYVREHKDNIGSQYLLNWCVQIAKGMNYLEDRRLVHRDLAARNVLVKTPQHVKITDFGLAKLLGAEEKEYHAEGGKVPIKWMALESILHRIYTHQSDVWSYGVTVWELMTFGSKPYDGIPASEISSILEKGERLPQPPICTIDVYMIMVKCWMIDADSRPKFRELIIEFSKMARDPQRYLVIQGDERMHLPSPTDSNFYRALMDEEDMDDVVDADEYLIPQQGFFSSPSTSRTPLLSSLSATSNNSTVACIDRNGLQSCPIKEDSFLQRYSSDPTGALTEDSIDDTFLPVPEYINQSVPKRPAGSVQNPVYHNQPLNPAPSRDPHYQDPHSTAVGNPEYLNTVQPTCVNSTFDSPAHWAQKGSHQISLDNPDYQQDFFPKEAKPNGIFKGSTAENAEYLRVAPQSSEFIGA
Sequence of Mast/stem cell growth factor receptor Kit (Homo sapiens), P10721 [D816V] (P10721 whole entry D816V, the tested form may be a part): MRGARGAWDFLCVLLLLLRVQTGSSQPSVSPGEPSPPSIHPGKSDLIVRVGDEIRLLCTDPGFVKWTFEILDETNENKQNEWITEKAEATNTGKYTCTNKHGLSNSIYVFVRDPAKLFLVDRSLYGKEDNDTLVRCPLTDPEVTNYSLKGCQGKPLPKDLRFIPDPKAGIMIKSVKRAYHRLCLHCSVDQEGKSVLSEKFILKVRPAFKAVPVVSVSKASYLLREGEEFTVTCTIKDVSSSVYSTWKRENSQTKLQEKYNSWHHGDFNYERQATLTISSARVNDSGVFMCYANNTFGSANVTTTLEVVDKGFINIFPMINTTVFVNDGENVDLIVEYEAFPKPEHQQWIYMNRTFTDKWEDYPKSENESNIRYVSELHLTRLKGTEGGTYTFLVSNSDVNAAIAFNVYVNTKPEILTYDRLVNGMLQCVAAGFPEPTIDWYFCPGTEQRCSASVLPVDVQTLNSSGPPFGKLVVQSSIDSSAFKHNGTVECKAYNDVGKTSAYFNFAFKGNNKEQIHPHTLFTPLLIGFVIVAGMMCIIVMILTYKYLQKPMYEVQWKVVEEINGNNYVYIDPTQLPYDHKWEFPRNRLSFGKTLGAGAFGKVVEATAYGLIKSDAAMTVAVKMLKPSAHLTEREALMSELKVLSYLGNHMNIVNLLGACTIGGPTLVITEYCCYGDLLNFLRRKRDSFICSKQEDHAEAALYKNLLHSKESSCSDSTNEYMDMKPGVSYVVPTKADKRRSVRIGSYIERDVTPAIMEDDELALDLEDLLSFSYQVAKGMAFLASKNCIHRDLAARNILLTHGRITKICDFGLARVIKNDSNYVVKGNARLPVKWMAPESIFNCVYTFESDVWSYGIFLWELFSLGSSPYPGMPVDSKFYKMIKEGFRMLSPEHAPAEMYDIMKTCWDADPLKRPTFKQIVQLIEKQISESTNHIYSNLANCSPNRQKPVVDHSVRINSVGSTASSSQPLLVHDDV
Sequence of BDNF/NT-3 growth factors receptor (Homo sapiens) (Q16620 32-822 limits assumed): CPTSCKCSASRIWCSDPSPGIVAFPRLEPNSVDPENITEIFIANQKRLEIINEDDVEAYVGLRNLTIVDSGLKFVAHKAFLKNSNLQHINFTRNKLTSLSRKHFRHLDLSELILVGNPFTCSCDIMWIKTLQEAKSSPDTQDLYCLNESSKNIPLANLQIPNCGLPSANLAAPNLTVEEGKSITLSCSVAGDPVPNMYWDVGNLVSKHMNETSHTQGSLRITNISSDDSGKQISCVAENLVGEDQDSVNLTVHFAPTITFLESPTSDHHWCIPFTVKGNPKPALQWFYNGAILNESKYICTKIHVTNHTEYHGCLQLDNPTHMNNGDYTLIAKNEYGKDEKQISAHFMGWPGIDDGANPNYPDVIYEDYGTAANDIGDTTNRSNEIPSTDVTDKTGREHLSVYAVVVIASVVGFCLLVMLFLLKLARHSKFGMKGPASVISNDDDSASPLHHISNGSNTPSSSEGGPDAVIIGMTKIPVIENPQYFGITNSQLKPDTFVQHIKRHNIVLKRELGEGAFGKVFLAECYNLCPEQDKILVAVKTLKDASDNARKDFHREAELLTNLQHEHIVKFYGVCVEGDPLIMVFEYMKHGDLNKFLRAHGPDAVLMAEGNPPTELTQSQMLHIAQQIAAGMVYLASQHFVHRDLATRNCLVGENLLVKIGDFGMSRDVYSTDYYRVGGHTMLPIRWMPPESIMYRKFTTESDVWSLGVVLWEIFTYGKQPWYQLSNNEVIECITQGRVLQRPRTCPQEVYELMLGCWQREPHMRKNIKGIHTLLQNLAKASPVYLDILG
Sequence of Cyclin-dependent kinase 16 (Homo sapiens) (Q00536 whole entry, the tested form may be a part): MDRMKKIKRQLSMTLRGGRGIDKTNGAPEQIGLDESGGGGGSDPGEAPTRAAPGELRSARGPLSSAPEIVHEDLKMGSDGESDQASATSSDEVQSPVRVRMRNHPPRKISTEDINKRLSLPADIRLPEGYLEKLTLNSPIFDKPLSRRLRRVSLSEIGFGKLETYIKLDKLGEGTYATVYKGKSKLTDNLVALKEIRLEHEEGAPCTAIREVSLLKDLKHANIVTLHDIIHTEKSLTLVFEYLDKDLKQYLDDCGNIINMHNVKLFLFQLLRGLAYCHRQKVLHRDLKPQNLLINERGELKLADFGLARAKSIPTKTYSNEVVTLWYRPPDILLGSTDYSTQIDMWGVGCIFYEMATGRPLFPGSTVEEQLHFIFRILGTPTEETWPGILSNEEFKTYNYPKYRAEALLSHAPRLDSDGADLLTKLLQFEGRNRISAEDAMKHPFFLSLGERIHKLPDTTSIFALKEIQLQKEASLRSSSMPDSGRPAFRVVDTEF

With `O=C(Nc1cc(-c2cn(CCNc3c4c(nc5ccccc35)CCCC4)nn2)ccn1)Nc1cccc2c1C1CCCCN1C2=O` (racemic), the Activity came out at 17% in assay [1]; 99% in [2]; 75% in assay [3]; 100% in assay [4]; 66% in assay [5]; 48% in assay [6]. In addition, the Activity in [7] amounted to 4.3%; in assay [8] it was 79%; in assay [9], 100%; in [10] it was 1%; in assay [11], 91%; in assay [12], 1.1%. Besides, the Activity in assay [13] came out at 100%; in assay [14], 19%; in assay [15] it was 67%; in assay [16], 17%; in [17] it was 4.5%; in assay [18], 8.7%. Also, in the assay with PC-3, the IC50 amounted to 5 µM.
